{
  "source": "patent US8883679B2",
  "about": "“Liquid mycorrhiza compositions” (Novozymes A/S, priority 2007, dated 2014)",
  "tested_on": "roots of corn plants",
  "assay": "endomycorrhizal mean infection percentage (MIP) bioassay",
  "format": "in vivo, Zea Maize 'Golden Bantam'",
  "settings": "both trials",
  "experimental": "An endomycorrhizal mean infection percentage (MIP) bioassay was initiated to test mycorrhizal infectivity of a liquid mycorrhizal formulation treated with bactericides. The MIP bioassay is used to determine the effect of endomycorrhizal colonization in the roots of corn plants on the treatment applied. The MIP bioassay was adapted to utilize 15 mL of liquid per pot. The liquid mycorrhizal formulation which was tested was MycoApply Ultra (Novozymes Biologicals), which is a mycorrhizal inoculant that contains several species of endomycorrhizas. For a ready to use fertilizer, the optimal amount of mycorrhizas to be added based on application rate of ready to use fertilizer, mycorrhizal infectivity, and cost effectiveness was 0.1 propagules of mycorrhizas per 1.0 mL of ready to use fertilizer. MycoApply Ultra contains 286 propagules per gram, therefore 0.00034 g MycoApply Ultra in 1 mL of ready to use fertilizer will provide the desired concentration of mycorrhizal propagules, 0.1 prop/mL. The MycoApply Ultra was tested with two different concentrates 10× (0.0034 g/mL) and 100× (0.034 g/mL). The bactericide used in all treatments for Trial 1 was 500 ppm Kathon and 250 ppm Bronopol. There were seven treatment groups, each contained 5 replicates. Treatment 1 was a water only control. […] At harvest the parameter evaluated was percent mycorrhizal colonization. […]",
  "data": [
    {"smiles": "O=[N+]([O-])C(Br)(CO)CO", "note": "[Bronopol, 2-bromo-2-nitro-1,3-propanediol]", "values": [
      {"measurement": "ability of mycorrhizas to germinate and infect roots in presence of bactericide", "value": "increase"}
    ]}
  ]
}
